Test results taken from US9777020B2, “Furo-3-carboxamide derivatives and methods of use” (AbbVie Inc., priority 2014, dated 2017).
Marks after values point to notes of the source that are not given here.

How the values were obtained:
[1] = tested on: MIA-induced osteoarthritis pain; test: Rat model of mono-iodoacetic acid (MIA) induced osteoarthritis pain, hind limb grip force; assay type: in vivo; conditions: mean percent effect
Description: Members of the TrkA inhibitors described above were tested and found effective in reducing osteoarthritis pain. The compounds tested were assessed in an in vivo model well known to those skilled in the art, the rat model of mono-iodoacetic acid induced osteoarthritis pain. A general review of various models of pain can be found in Joshi and Honore, Expert Opinion in Drug Discovery (2004) 1, pp. 323-334, and in the book ‘Drug Discovery and Evaluation, 2nd edition (H. Gerhard Vogel, editor; Springer-Verlag, New York, 2002; pp. 702-706). Pain behavior was assessed by measurement of hind limb grip force (GF) in adult osteoarthritic rats. Male Sprague Dawley rats, generally weighing 125-150 g, were injected in the unilateral knee join with a single intra-articular injection of sodium monoiodoacetate (MIA). Rats were tested at 21-28 days following MIA injection. A behavioral measure of activity-induced pain was carried out. Measurements of the peak hind limb grip force were conducted by recording the maximum compressive force (CFmax), in grams of force, exerted on a hind limb strain gauge setup, in a commercially available grip force measurement system (Columbus Instruments, Columbus, Ohio). During testing, each rat was gently restrained by grasping it around its rib cage and then allowed to grasp the wire mesh frame attached to the strain gauge. The experimenter then moved the animal in a rostral-to-caudal direction until the grip was broken. Each rat was sequentially tested twice at an approximately 2-3 minute interval to obtain a raw mean grip force (CFmax). This raw mean grip force data was in turn converted to a maximum hindlimb cumulative compressive force (CFmax), as the grams of force/kg of body weight, for each animal. For evaluating the compound effects, the hind limb grip force testing in the MIA-treated rats was conducted generally 30-60 minutes after dosing with the test compound. A group of age-matched naïve (not injected with MIA) animals was added as a comparator to the drug-dosed groups. The vehicle control response for each group of MIA-treated animals was defined as the 0% response (0% effect), whereas the naïve control group was defined as the normal response and as 100% effect. The % effect=(Treatment CFmax−Vehicle CFmax)[…]]×100). Higher % effect numbers indicate increased relief from the pain in the model, with 100% indicating a return to the level of response seen in normal (non-osteoarthritic) animals. All experiments evaluating drug effects in this model were conducted in a randomized blinded fashion. Male Sprague Dawley rats (generally 250-300 g body weight at the time of testing) obtained from Charles River Laboratories (Wilmington, Mass.) were used for all experiments, unless indicated otherwise. The animals were housed in Association for Assessment and Accreditation of Laboratory Animal Care (AAALAC) approved facilities at AbbVie in a temperature-regulated environment under a controlled 12-hour light-dark cycle, with lights on at 6:00 a.m. Food and water were available ad libitum at all times except during testing. All testing was done following procedures outlined in protocols approved by AbbVie Institutional Animal Care and Use Committee.

TrkA = TrkA (Homo sapiens (Human), UniProt P04629); test: TrkA kinase HTRF enzyme inhibition assay; assay type: biochemical; conditions: TrkA pre-incubated with 200 μM ATP
Procedure, shortened: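 HTRF ratio read-out of biotin-peptide (125 nM) phosphorylation, 1 h reaction after TrkA (2-10 nM) auto-activation with ATP (200 μM) for 20 min and 10 min compound pre-incubation in 50 mM HEPES pH 7.4 with MgCl2/MnCl2. Percent inhibition from initial rates in duplicate, fitted to single-site equation for IC50.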

[2] = 30 mg/kg p.o., tested 30-60 minutes postdosing

TrkA, sequence (P04629 33-796): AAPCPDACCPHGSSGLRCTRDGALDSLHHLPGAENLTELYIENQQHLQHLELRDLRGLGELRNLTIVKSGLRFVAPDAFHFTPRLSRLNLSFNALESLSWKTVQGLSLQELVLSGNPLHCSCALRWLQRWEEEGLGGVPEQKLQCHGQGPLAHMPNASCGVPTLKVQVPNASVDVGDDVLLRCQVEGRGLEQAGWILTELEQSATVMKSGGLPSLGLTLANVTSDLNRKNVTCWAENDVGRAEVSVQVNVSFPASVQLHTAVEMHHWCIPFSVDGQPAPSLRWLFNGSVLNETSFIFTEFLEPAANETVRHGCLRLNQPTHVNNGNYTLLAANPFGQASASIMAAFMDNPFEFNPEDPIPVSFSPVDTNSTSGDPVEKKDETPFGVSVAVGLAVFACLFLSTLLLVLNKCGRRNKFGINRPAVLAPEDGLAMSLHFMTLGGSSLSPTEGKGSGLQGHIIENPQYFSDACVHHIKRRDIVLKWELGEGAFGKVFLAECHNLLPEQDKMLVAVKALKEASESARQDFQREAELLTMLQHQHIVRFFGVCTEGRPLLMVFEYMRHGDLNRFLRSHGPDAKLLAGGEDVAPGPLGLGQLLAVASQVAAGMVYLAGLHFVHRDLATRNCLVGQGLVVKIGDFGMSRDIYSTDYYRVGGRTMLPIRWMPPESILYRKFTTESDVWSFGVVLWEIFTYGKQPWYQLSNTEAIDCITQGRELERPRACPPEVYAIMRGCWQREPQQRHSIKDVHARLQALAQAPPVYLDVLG

Compound	IC50 (TrkA) [nM]	% Effect (hind limb grip force, MIA model) [1, 2]	% Effect (hind limb grip force, MIA model) ([1]; 100 mg/kg p.o., tested 3 hours post dose) [% **]	% Effect (hind limb grip force, MIA model) ([1]; 30 mg/kg p.o., tested 3 hours post dose) [% ***]	% Effect (hind limb grip force, MIA model) ([1]; 300 mg/kg p.o., tested 3 hours post dose) [% ***]
CCOc1nc(N2CCN(C(C)=O)CC2)ccc1NC(=O)c1coc2c1C(=O)N(CCO)CC2 [Example 9, N-[6-(4-acetylpiperazin-1-yl)-2-ethoxypyridin-3-yl]-5-(2-hydroxyethyl)-4-oxo-4,5,6,7-tetrahydrofuro[3,2-c]pyridine-3-carboxamide]		69% **			
CCOc1nc(N2CCN(C(C)=O)CC2)ccc1NC(=O)c1coc2c1C(=O)NC(C)(C)C2 [Example 128, N-[6-(4-acetylpiperazin-1-yl)-2-ethoxypyridin-3-yl]-6,6-dimethyl-4-oxo-4,5,6,7-tetrahydrofuro[3,2-c]pyridine-3-carboxamide]	5.4			55	
Cn1cc2cc(NC(=O)c3coc4c3C(=O)CC(C)(C)C4)ccc2n1 [Example 147, 6,6-dimethyl-N-(2-methyl-2H-indazol-5-yl)-4-oxo-4,5,6,7-tetrahydro-1-benzofuran-3-carboxamide]	16.1				69
COCCOc1nc(N2CCN(C(C)=O)CC2)ccc1NC(=O)c1coc2c1C(=O)NC(C)(C)C2 [Example 177, N-[6-(4-acetylpiperazin-1-yl)-2-(2-methoxyethoxyl)pyridin-3-yl]-6,6-dimethyl-4-oxo-4,5,6,7-tetrahydrofuro[3,2-c]pyridine-3-carboxamide]	12.2	68% ***			

Further molecules by falling IC50 (TrkA), results first:

IC50 (TrkA) [nM]	Compound	% Effect (hind limb grip force, MIA model) [1, 2]	% Effect (hind limb grip force, MIA model) ([1]; 100 mg/kg p.o., tested 3 hours post dose) [% **]	% Effect (hind limb grip force, MIA model) ([1]; 30 mg/kg p.o., tested 3 hours post dose) [% ***]	% Effect (hind limb grip force, MIA model) ([1]; 300 mg/kg p.o., tested 3 hours post dose) [% ***]
25	COc1cc(N2CCN(C(C)=O)CC2)ccc1NC(=O)c1coc2c1C(=O)NC(C)(C)C2 [Example 126, N-[4-(4-acetylpiperazin-1-yl)-2-methoxyphenyl]-6,6-dimethyl-4-oxo-4,5,6,7-tetrahydrofuro[3,2-c]pyridine-3-carboxamide]		47		
18.1	COc1nc(N2CCN(C(=O)N3CCOCC3)CC2)ccc1NC(=O)c1coc2c1C(=O)NC(C)(C)C2 [Example 121, N-{2-methoxy-6-[4-(morpholin-4-ylcarbonyl)piperazin-1-yl]pyridin-3-yl}-6,6-dimethyl-4-oxo-4,5,6,7-tetrahydrofuro[3,2-c]pyridine-3-carboxamide]	74% ***			
